According to patent US20180161383A1, “NATURAL PHARMACEUTICAL COMPOSITION FOR TREATING MENOPAUSAL MENTAL DEPRESSION AND ATYPICAL DEPRESSIVE DISORDER AND APPLICATION THEREOF” (SHAANXI TIANKUI BIOMEDICINE TECHNOLOGY LIMITED COMPANY, priority 2015, published 2018):

Columns and labels:
Type in all cases: in vivo
[1] = system: rats suffering from the menopausal depression; assay: open-field test of rats; set-up: After medication minus Before medication (Fecal weight) / Fecal weight: unit not given here; conditions: positive drug group, dose not given
[2] = system: rats suffering from the menopausal depression; assay: open-field water drinking test of rats; conditions: positive drug group, dose not given
[3] = system: adrenocorticotrophic hormone; assay: ELISA, content of adrenocorticotrophic hormone in serum of rats; conditions: rat serum, positive drug group, dose not given
Description: (§1) drenching animals in sequence to put to death within 3 cycles, enabling the animals to have empty stomachs for 12 hours before putting to death, and performing intraperitoneal anesthesia with 3% of pentobarbital sodium at a dose of 0.1 ml/100 g; and taking 8 ml of whole blood in a centrifuge tube, centrifuging at a rate of 4000 r/min for 15 min, separating the serum after centrifuging, labeling, and separately filling and preserving in a refrigerator of −20° C.; 2) ELISA Determination Method is as Follows: Detection is performed according to description of an ELISA kit. Before use, all reagents are fully and uniformly mixed. Lots of bubbles should not be produced in liquid, so as to avoid generating a sample adding error due to addition of lots of bubbles during sample adding. The quantity of needed plates is determined according to a quantity of to-be-detected samples and the quantity of standard substances. […] However, since many samples need to be determined, single holes should be made according to actual conditions. […] A basic principle of enzyme-labeled immunoassay is as follows: an antibody connected onto a solid-phase carrier and an enzyme-labeled antibody are respectively bound to two antigenic determinants on a detected antigen molecule in the sample to form a solid-phase antibody-antigen-enzyme-labeled antibody immune complex. […]

noradrenaline = assay: ELISA, content of noradrenaline in serum of rats; conditions: rat serum, positive drug group, dose not given
Description: as §1

5-hydroxytryptamine = assay: ELISA, content of 5-hydroxytryptamine in serum of rats; conditions: rat serum, positive drug group, dose not given
Description: as §1

dopamine = assay: ELISA, content of dopamine in serum of rats; conditions: rat serum, positive drug group, dose not given
Description: as §1

cAMP = assay: ELISA, content of cAMP in serum of rats; conditions: rat serum, positive drug group, dose not given
Description: as §1

cGMP = assay: ELISA, content of cGMP in serum of rats; conditions: rat serum, positive drug group, dose not given
Description: as §1

oxytocin = assay: ELISA, content of oxytocin in serum of rats; conditions: rat serum, positive drug group, dose not given
Description: as §1

[4] = system: follicle-stimulating hormone; assay: ELISA, content of follicle-stimulating hormone in serum of rats; conditions: rat serum, positive drug group, dose not given
Description: as §1

estradiol = assay: ELISA, content of estradiol in serum of rats; conditions: rat serum, positive drug group, dose not given
Description: as §1

IL-6 = assay: ELISA, content of IL-6 in serum of rats; conditions: rat serum, positive drug group, dose not given
Description: as §1

IL-2 = assay: ELISA, content of IL-2 in serum of rats; conditions: rat serum, positive drug group, dose not given
Description: as §1

IL-8 = assay: ELISA, content of IL-8 in serum of rats; conditions: rat serum, positive drug group, dose not given
Description: as §1

## Fc1ccc([C@@H]2CCNC[C@H]2COc2ccc3c(c2)OCO3)cc1 [Paroxetine, paroxetine]
[1]; rats after medication
  Fecal weight: 0.14 ± 0.38
  Horizontal scores: 78.29 ± 28.18
  Vertical scores: 9.57 ± 4.68
[1]; rats
  After medication minus Before medication (Fecal weight): −0.94 ± 0.71
  After medication minus before medication (horizontal scores): 41.14 ± 28.54
[2]; rats after medication
  Number of times approaching to water bottles: 10.43 ± 5.09
  Number of times standing: 11.28 ± 4.23
  Water drinking latent period: 88.86 ± 20.05
  Water drinking time: 112.14 ± 50.83
[2]; rats
  After medication minus Before medication (Frequencies of approaching water bottles): 6.5742 ± 4.0443
  After medication minus Before medication (Standing frequency): 7.5728 ± 4.5413
  After medication minus Before medication (Water drinking time): 112.14 ± 50.83
  After medication minus Medication (Water drinking latent period): 70.43 ± 35.65
[3]
  ACTH: 16.3682 ± 1.8767 ng/L
noradrenaline
  NA: 32.5359 ± 5.6128 ng/L
5-hydroxytryptamine
  5-HT: 42.9048 ± 6.2922 ng/L
dopamine
  DA: 7.6595 ± 1.3337 pg/L
cAMP
  cAMP: 2.7761 ± 0.3726 U/L
cGMP
  cGMP: 1.8333 ± 0.4686 U/L
oxytocin
  OT: 4.1889 ± 0.8811 ng/L
[4]
  FSH: 3.7068 ± 0.6242 IU/L
estradiol
  E2: 10.0566 ± 0.7140 ng/L
IL-6
  IL-6: 14.9800 ± 2.9183 ng/mL
IL-2
  IL-2: 341.853 ± 59.289 ng/L
IL-8
  IL-8: 196.479 ± 14.596 ng/L
